# Biological target: recombinant IL4I1 (Homo sapiens (Human), UniProt Q96RQ9)
# Test: IL4I1 Enzymatic Assay (Amplex Red/HRP coupled fluorescence detection of H2O2)
# Assay type: biochemical
# Conditions: 240 min; recombinant IL4I1, four-hour pre-incubation with compound
# Procedure, shortened: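 Recombinant human IL4I1 (1 nM final) pre-incubated 4 h with compound at ambient temperature in 50 mM Hepes pH 7.0, 0.005% Tween20. Started with 1 mM each Phe/Tyr/Trp plus Amplex Red/HRP; H2O2-derived resorufin fluorescence read after 120 min; EC50 from ten-point 1:3 titration, four-parameter fit.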
# recombinant IL4I1, sequence (Q96RQ9 22-567): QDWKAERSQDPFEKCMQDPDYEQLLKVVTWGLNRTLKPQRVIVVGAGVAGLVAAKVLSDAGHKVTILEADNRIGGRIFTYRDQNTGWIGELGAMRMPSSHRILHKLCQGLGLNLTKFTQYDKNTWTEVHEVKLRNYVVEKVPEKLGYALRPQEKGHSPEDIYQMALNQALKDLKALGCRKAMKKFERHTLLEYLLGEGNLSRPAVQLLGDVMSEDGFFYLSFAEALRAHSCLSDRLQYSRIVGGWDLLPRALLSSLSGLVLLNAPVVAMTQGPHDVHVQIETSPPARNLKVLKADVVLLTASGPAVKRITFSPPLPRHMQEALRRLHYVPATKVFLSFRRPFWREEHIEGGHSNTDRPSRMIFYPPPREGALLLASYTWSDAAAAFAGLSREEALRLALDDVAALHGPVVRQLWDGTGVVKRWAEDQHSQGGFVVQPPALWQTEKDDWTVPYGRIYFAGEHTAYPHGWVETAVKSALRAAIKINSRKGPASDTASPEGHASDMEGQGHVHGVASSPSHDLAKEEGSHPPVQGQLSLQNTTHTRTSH
row,EC50 [nM],SMILES
1,32,"O=C1C(=O)N(C2(C(F)(F)F)CCC2)CCN1Cc1nnc(-c2ccccc2)s1 [Example 298, 1-((5-phenyl-1,3,4-thiadiazol-2-yl)methyl)-4-(1-(trifluoromethyl)cyclobutyl)piperazine-2,3-dione]"
2,4,"O=C1C(=O)N(C2CC(C3CC3)C2)CCN1Cc1nnc(-c2ccccc2)s1 (centres unmarked) [Example 291, 1-(3-cyclopropylcyclobutyl)-4-((5-phenyl-1,3,4-thiadiazol-2-yl)methyl)piperazine-2,3-dione]"
3,3,"O=c1c(=O)n(C2CCC2)ccn1Cc1ccc(-c2ccccc2F)nn1 [Example 49, 1-cyclobutyl-4-((6-(2-fluorophenyl)pyridazin-3-yl)methyl)-1,4-dihydropyrazine-2,3-dione]"
4,63,"CC1(n2ccn(Cc3ccc(-c4cccnc4)nn3)c(=O)c2=O)CC1 [Example 90, 1-(1-methylcyclopropyl)-4-((6-(pyridin-3-yl)pyridazin-3-yl)methyl)-1,4-dihydropyrazine-2,3-dione]"
5,24,"CC1(n2ccn(Cc3cc(-c4ccccn4)no3)c(=O)c2=O)CC1 [Example 199, 1-(1-methylcyclopropyl)-4-((3-(pyridin-2-yl)isoxazol-5-yl)methyl)-1,4-dihydropyrazine-2,3-dione]"
6,45,"O=C1C(=O)N(C2CCCC2)CCN1Cc1ccc(N2CCOCC2)nn1 [Example 317, 1-cyclopentyl-4-((6-morpholinopyridazin-3-yl)methyl)piperazine-2,3-dione]"
7,7,"O=C1C(=O)N(C23CC(C2)C3)CCN1Cc1ccc(-c2ccccc2)cn1 [Example 114, 1-(bicyclo[1.1.1]pentan-1-yl)-4-((5-phenylpyridin-2-yl)methyl)piperazine-2,3-dione]"
8,4,"O=C1C(=O)N([C@H]2C[C@H](c3ccccc3)C2)CCN1Cc1ccc(-c2ccccc2)nc1 [Example 266B, trans-1-(3-phenylcyclobutyl)-4-((6-phenylpyridin-3-yl)methyl)piperazine-2,3-dione]"
9,26,"CC1(n2ccn(Cc3ccc(-n4cccn4)nc3)c(=O)c2=O)CC1 [Example 383, 1-((6-(1H-pyrazol-1-yl)pyridin-3-yl)methyl)-4-(1-methylcyclopropyl)-1,4-dihydropyrazine-2,3-dione]"
10,38,"O=C1C(=O)N(C23CC(F)(C2)C3)CCN1Cc1cc(-c2ccccn2)on1 [Example 252, 1-(3-fluorobicyclo[1.1.1]pentan-1-yl)-4-((5-(pyridin-2-yl)isoxazol-3-yl)methyl)piperazine-2,3-dione]"
11,78,"O=C1C(=O)N(C23CC(F)(C2)C3)CCN1Cc1cn(-c2ccccn2)nn1 [Example 259, 1-(3-fluorobicyclo[1.1.1]pentan-1-yl)-4-((1-(pyridin-2-yl)-1H-1,2,3-triazol-4-yl)methyl)piperazine-2,3-dione]"
12,92,"N#CC1(n2ccn(Cc3cc(-c4cccnc4)on3)c(=O)c2=O)CC1 [Example 210, 1-(2,3-dioxo-4-((5-(pyridin-3-yl)isoxazol-3-yl)methyl)-3,4-dihydropyrazin-1(2H)-yl)cyclopropane-1-carbonitrile]"
13,2,"O=c1c(=O)n(C2CCC2)ccn1Cc1cc(-c2ccccc2F)no1 [Example 152, 1-cyclobutyl-4-((3-(2-fluorophenyl)isoxazol-5-yl)methyl)-1,4-dihydropyrazine-2,3-dione]"
14,33,"CC1(n2ccn(Cc3ccc(-c4ccccc4F)nn3)c(=O)c2=O)CC1 [Example 197, 1-((6-(2-fluorophenyl)pyridazin-3-yl)methyl)-4-(1-methylcyclopropyl)-1,4-dihydropyrazine-2,3-dione]"
15,533,"O=C1C(=O)N(C23CC(F)(C2)C3)CCN1Cc1ccc(-n2ccnn2)nc1 [Example 236, 1-((6-(1H-1,2,3-triazol-1-yl)pyridin-3-yl)methyl)-4-(3-fluorobicyclo[1.1.1]pentan-1-yl)piperazine-2,3-dione]"
16,14,"O=C1C(=O)N(C23CC(C2)C3)CCN1Cc1ccc(-n2ccnn2)nc1 [Example 117, 1-((6-(1H-1,2,3-triazol-1-yl)pyridin-3-yl)methyl)-4-(bicyclo[1.1.1]pentan-1-yl)piperazine-2,3-dione]"
17,17,"O=c1c(=O)n(C23CC(C2)C3)ccn1Cc1ccc(-n2nccn2)nn1 [Example 403, 1-((6-(2H-1,2,3-triazol-2-yl)pyridazin-3-yl)methyl)-4-(bicyclo[1.1.1]pentan-1-yl)-1,4-dihydropyrazine-2,3-dione]"
18,2,"O=c1c(=O)n(C23CC(C2)C3)ccn1Cc1cc(-c2cccc(F)c2)on1 [Example 417, 1-(bicyclo[1.1.1]pentan-1-yl)-4-((5-(3-fluorophenyl)isoxazol-3-yl)methyl)-1,4-dihydropyrazine-2,3-dione]"
19,9,"O=C1C(=O)N(C23CC(C2)C3)CCN1Cc1cn(-c2ccccc2)nn1 [Example 439, 1-(bicyclo[1.1.1]pentan-1-yl)-4-((1-phenyl-1H-1,2,3-triazol-4-yl)methyl)piperazine-2,3-dione]"

row,EC50 [nM],SMILES
1,41,"O=C1C(=O)N(C2(CF)CC2)CCN1Cc1nnc(-c2ccccc2F)s1 [Example 194, 1-(1-(fluoromethyl)cyclopropyl)-4-((5-(2-fluorophenyl)-1,3,4-thiadiazol-2-yl)methyl)piperazine-2,3-dione]"
2,91,"O=c1c(=O)n(C23CC(F)(C2)C3)ccn1Cc1ccc(-n2ccnn2)nc1 [Example 230, 1-((6-(1H-1,2,3-triazol-1-yl)pyridin-3-yl)methyl)-4-(3-fluorobicyclo[1.1.1]pentan-1-yl)-1,4-dihydropyrazine-2,3-dione]"
3,97,"O=C1C(=O)N2CCCCC2CN1Cc1nnc(-c2ccccc2)s1 (single isomer, unassigned) [Example 180, (R or S)-2-((5-phenyl-1,3,4-thiadiazol-2-yl)methyl)hexahydro-2H-pyrido[1,2-a]pyrazine-3,4-dione]"
4,22,"O=C1C(=O)N(C2CCC2)CCN1Cc1ccc(-n2nccn2)nn1 [Example 398, 1-((6-(2H-1,2,3-triazol-2-yl)pyridazin-3-yl)methyl)-4-cyclobutylpiperazine-2,3-dione]"
5,56,"O=c1c(=O)n(C23CC(F)(C2)C3)ccn1Cc1ccc(-c2ccccn2)nn1 [Example 214, 1-(3-fluorobicyclo[1.1.1]pentan-1-yl)-4-((6-(pyridin-2-yl)pyridazin-3-yl)methyl)-1,4-dihydropyrazine-2,3-dione]"
6,28,"C[C@@H](c1nnc(-c2ccccc2)s1)N1CCN(C2CCC2)C(=O)C1=O [Example 356, (S)-1-cyclobutyl-4-(1-(5-phenyl-1,3,4-thiadiazol-2-yl)ethyl)piperazine-2,3-dione]"
7,68,"O=c1c(=O)n(C2(CF)CC2)ccn1Cc1cn(-c2ccccn2)nn1 [Example 257, 1-(1-(fluoromethyl)cyclopropyl)-4-((1-(pyridin-2-yl)-1H-1,2,3-triazol-4-yl)methyl)-1,4-dihydropyrazine-2,3-dione]"
8,1,"O=c1c(=O)n([C@H]2C[C@H]3C[C@H]3C2)ccn1Cc1cc(-c2cccc(F)c2)on1 [Example 67, 1-((cis)-bicyclo[3.1.0]hexan-3-yl)-4-((5-(3-fluorophenyl)isoxazol-3-yl)methyl)-1,4-dihydropyrazine-2,3-dione]"
9,17,"O=C1C(=O)N(C2CCCC2)CCN1Cc1ccc(-n2nccn2)cn1 [Example 380, 1-((5-(2H-1,2,3-triazol-2-yl)pyridin-2-yl)methyl)-4-cyclopentylpiperazine-2,3-dione]"
10,11,"O=c1c(=O)n(C2CCC2)ccn1Cc1ccc(-n2nccn2)cn1 [Example 397, 1-((5-(2H-1,2,3-triazol-2-yl)pyridin-2-yl)methyl)-4-cyclobutyl-1,4-dihydropyrazine-2,3-dione]"
11,15,"O=C1C(=O)N(C2CCCC2)CCN1CCc1cc2ccc(Cl)cc2nn1 [Example 268, 1-(2-(7-chlorocinnolin-3-yl)ethyl)-4-cyclopentylpiperazine-2,3-dione]"
12,5,"O=C1C(=O)N(C2CCCC2)CCN1Cc1ccc(-c2ccccc2)nc1 [Example 97, 1-cyclopentyl-4-((6-phenylpyridin-3-yl)methyl)piperazine-2,3-dione]"
13,7,"O=C1C(=O)N(C23CC(C2)C3)CCN1Cc1nnc(-c2ccccc2)s1 [Example 121, 1-(bicyclo[1.1.1]pentan-1-yl)-4-((5-phenyl-1,3,4-thiadiazol-2-yl)methyl)piperazine-2,3-dione]"
14,1,"O=c1c(=O)n(C2CCCC2)ccn1Cc1cc(-c2ccccc2)no1 [Example 358B, 1-cyclopentyl-4-((3-phenylisoxazol-5-yl)methyl)-1,4-dihydropyrazine-2,3-dione]"
15,14,"O=c1c(=O)n(C2CCC2)ccn1Cc1cn(-c2ccccc2)cn1 [Example 175, 1-cyclobutyl-4-((1-phenyl-1H-imidazol-4-yl)methyl)-1,4-dihydropyrazine-2,3-dione]"
16,32,"O=c1c(=O)n(C2(CF)CC2)ccn1Cc1ccc(-c2ccccc2F)nn1 [Example 242, 1-(1-(fluoromethyl)cyclopropyl)-4-((6-(2-fluorophenyl)pyridazin-3-yl)methyl)-1,4-dihydropyrazine-2,3-dione]"
17,8,"O=C1C(=O)N(C2CCCC2)CCN1Cc1ncc(-c2ccccc2)cc1F [Example 101, 1-cyclopentyl-4-((3-fluoro-5-phenylpyridin-2-yl)methyl)piperazine-2,3-dione]"
18,14,"O=C1C(=O)N(C2CCC2)CCN1Cc1ccc(-c2cccc(F)c2F)nn1 [Example 21, 1-cyclobutyl-4-((6-(2,3-difluorophenyl)pyridazin-3-yl)methyl)piperazine-2,3-dione]"
19,14,"O=C1C(=O)N2CCCCC2CN1Cc1nnc(-c2ccccc2)s1 (single isomer, unassigned) [Example 182, (R or S)-2-((5-phenyl-1,3,4-thiadiazol-2-yl)methyl)hexahydro-2H-pyrido[1,2-a]pyrazine-3,4-dione]"

# — patent US20240246937A1 (MERCK SHARP & DOHME LLC, priority 2021, published 2024)
